Data as given in patent publication US20250041329A1, “ACIDIC POLYMER COMPOSITIONS AND METHODS OF USE THEREOF” (NexEos Diagnostics, Inc., priority 2023, published 2025).
Where two headings read alike, the source gives them in different places. Values belong to the molecule of their own block, whether it stands above or below them.

Columns and labels:
eMBP1 [1] = biological target: T1, eMBP1 (Homo sapiens, UniProt P13727); assay: eMBP1 neutralization assay; assay type: cell-based; conditions: for Hill Slope: eMBP1 neutralization curve fit; for IC50: eMBP1 neutralization potency
T1 construct: the pro-piece is removed during granule maturation in the eosinophilic leukocyte to convert pro-eMBP1 to eMBP1
T1 sequence (P13727 106-222): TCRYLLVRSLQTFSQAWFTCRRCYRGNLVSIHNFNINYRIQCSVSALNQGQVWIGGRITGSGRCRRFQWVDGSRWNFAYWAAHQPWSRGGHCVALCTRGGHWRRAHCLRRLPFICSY
From the text: Methods: The goal of the investigation is to design and test a peptide product to neutralize and, thus, mitigate toxic effects of eosinophil granule proteins as a treatment for eosinophil-related diseases. Specifically, one aim is to test various polymers of acidic amino acids (i.e., glutamate and aspartate) for their ability to neutralize eMBP1 and compare their potencies to those of the pro-piece of pro-eosinophil major basic protein 1 (pro-eMBP1) as well as various heparins, i.e., low molecular weight heparin, high molecular weight heparin, and unfractionated heparin.
Because pro-piece (PP) can neutralize the toxicity of eMBP1, we reasoned that a careful study of the carbohydrate and acidic peptide structures might elucidate the comparative functions of these domains and lead to an effective eMBP1 inhibitor. We obtained heparins and polymers of the acidic amino acids, glutamic and aspartic, and compared their potencies in the eMBP1 neutralization assay.

eMBP1 [2] = biological target: T1, eMBP1; assay: Inhibition of eMBP1-stimulated histamine release from mast cells; assay type: cell-based; conditions: each inhibitor 50 μg/ml; eMBP1 10^−6 M; rat peritoneal mast cells; FIGS. 3A-3B
Protocol: (§1) Methods: To determine if the compounds shown in Table 2 had the ability to inhibit eMBP1 in a different assay, the compounds were tested for their ability to inhibit eMBP1-stimulated histamine release from mast cells. Peritoneal cells from male rats were harvested, enriched by centrifugation through a cushion of 38% bovine serum albumin (with purities up to about 90%), and stimulated with eMBP1. As expected from previous work, eMBP1 at a concentration of 10^−6 M stimulated histamine release. Specifically, approximately 63% of total histamine was released (as determined by boiling the rat mast cells), and 84% was released in comparison to the amount released by compound 48/80 at 0.1 μg/ml.
In order to test inhibition of eMBP1-stimulated histamine release, each inhibitor was provided as a concentration of 50 μg/ml. Polyglutamic acid (Sigma P4761) in the molecular weight range of 15-50 kDa was utilized for testing.

[3] = cited from earlier work
mast cells = assay: Histamine release from mast cells stimulated with eMBP1; assay type: cell-based, rat; conditions: eMBP1 10^−6 M
Protocol: as §1

[4] = IC50 molar concentration, read-out: IC50

Molecule: α poly-L-aspartic acid [α poly-L-Asp 5.75 kDa]
Hill Slope (eMBP1 [1]): 2.929
IC50 (eMBP1 [1]): 4.817 µg/mL
IC50 (eMBP1 [1]; [4]): 838 nM

Molecule: Polyglutamic acid
inhibition of eMBP1-stimulated histamine release (eMBP1 [2]): roughly comparably and more potently than unfractionated heparin and both glycosylated and unglycosylated pro-piece

Molecule: α poly-D-glutamic acid
Hill Slope (eMBP1 [1]): 2.445
IC50 (eMBP1 [1]): 5.197 µg/mL
IC50 (eMBP1 [1]; [4]): 157 nM

Molecule: α poly-L-aspartic acid [α poly-L-Asp 1.15 kDa]
Hill Slope (eMBP1 [1]): 2.808
IC50 (eMBP1 [1]): 14.3 µg/mL
IC50 (eMBP1 [1]; [4]): 12400 nM

Molecule: N[C@@H](CC(=O)O)C(=O)O [monomer aspartic acid, aspartic acid, reference compound]
eMBP1 inhibitory activity (in words) (eMBP1 [1]; eMBP1 neutralization, Table 2 / FIG. 1): devoid of eMBP1 inhibitory activity
pKa [3]: about 1.92

Molecule: α poly-L-glutamic acid [α poly-L-Glu 33 kDa]
Hill Slope (eMBP1 [1]): 2.786
IC50 (eMBP1 [1]): 5.118 µg/mL
IC50 (eMBP1 [1]; [4]): 155 nM

B1: eMBP1: eosinophil major basic protein-1, 13.8 kDa single polypeptide of the eosinophil granule core; stimulus in the assays (protein, UniProt P13727 17-222, looked up)
Bone marrow proteoglycan: LHLRSETSTFETPLGAKTLPEDEETPEQEMEETPCRELEEEEEWGSGSEDASKKDGAVESISVPDMVDKNLTCPEEEDTVKVVGIPGCQTCRYLLVRSLQTFSQAWFTCRRCYRGNLVSIHNFNINYRIQCSVSALNQGQVWIGGRITGSGRCRRFQWVDGSRWNFAYWAAHQPWSRGGHCVALCTRGGHWRRAHCLRRLPFICSY
modifications: Bone marrow proteoglycan
notes: eosinophil major basic protein-1, 13.8 kDa single polypeptide of the eosinophil granule core; stimulus in the assays
histamine released in comparison to the amount released by compound 48/80 (mast cells; compound 48/80 at 0.1 μg/ml): 84%
histamine released, of total histamine (mast cells; total determined by boiling the rat mast cells): approximately 63%

The next lines start with the values.

Hill Slope (eMBP1 [1]): 3.061
IC50 (eMBP1 [1]): 4.301 µg/mL
IC50 (eMBP1 [1]; [4]): 187 nM
Molecule: α poly-L-aspartic acid [α poly-L-Asp 23 kDa]

Hill Slope (eMBP1 [1]): 3.499
IC50 (eMBP1 [1]): 5.961 µg/mL
IC50 (eMBP1 [1]; [4]): 662 nM
Molecule: α poly-L-glutamic acid [α poly-L-Glu 9 kDa]

Hill Slope (eMBP1 [1]): 2.621
IC50 (eMBP1 [1]): 4.525 µg/mL
IC50 (eMBP1 [1]; [4]): 37.7 nM
Molecule: α poly-L-glutamic acid [α poly-L-Glu 120 kDa]

Hill Slope (eMBP1 [1]): 2.581
IC50 (eMBP1 [1]): 6.965 µg/mL
IC50 (eMBP1 [1]; [4]): 2680 nM
Molecule: α poly-L-glutamic acid [α poly-L-Glu 2.6 kDa]

Hill Slope (eMBP1 [1]): 11.5
IC50 (eMBP1 [1]): 3.317 µg/mL
IC50 (eMBP1 [1]; [4]): < 4.74 nM
Molecule: γ polyglutamic acid [γ poly-Glu >700 kDa]

Hill Slope (eMBP1 [1]): 3.202
IC50 (eMBP1 [1]): 6.158 µg/mL
IC50 (eMBP1 [1]; [4]): 821 nM
Molecule: α poly-L-glutamic acid [α poly-L-Glu 7.5 kDa]

Hill Slope (eMBP1 [1]): 2.177
IC50 (eMBP1 [1]): 19.6000 µg/mL
IC50 (eMBP1 [1]; [4]): 16300 nM
Molecule: γ polyglutamic acid [γ poly-Glu 1.2 kDa]

Hill Slope (eMBP1 [1]): 2.534
IC50 (eMBP1 [1]): 4.62 µg/mL
IC50 (eMBP1 [1]; [4]): > 462 nM
Molecule: γ polyglutamic acid [γ poly-Glu <10 kDa]
